Source: publication PMC10759609, “A novel PDPN antagonist peptide CY12-RP2 inhibits melanoma growth via Wnt/β-catenin and modulates the immune cells” (Journal of Experimental & Clinical Cancer Research : CR, 2024)
Peptide text beside a SMILES is read from it.

Tests used:
A375 melanoma xenograft = assay: A375 subcutaneous xenograft, BALB/c nude mice; assay type: in vivo; details: tail vein, every two days for 15 days
Experimental: (§1) Tumorigenesis assays were conducted in vivo using BALB/c nude mice and BALB/c mice from Guangdong Medical Laboratory Animal Center. The animal study was reviewed and approved by the Administrative Committee on Animal Research of Shenzhen International Graduate School, Tsinghua University (Ethical Development No. 16, 10 November 2021). Samples with 5 × 10^5 A375 or B16F10-Luc melanoma cells were diluted in 100 μL PBS and injected subcutaneously into 6- to 8-week-old female BALB/c nude mice or BALB/c mice. 5 days later, the mice were treated with CY12-RP2 by tail vein administration at various doses (25 mg/kg and 100 mg/kg) every two days. The tumor volume and body weight were measured every 2 days, with the calculation of the tumor volume under the assumption of an ellipsoidal tumor as: tumor volume = length × width^2/2. Tumors from BALB/c nude mice were collected and photographed on day 21, while tumors from the allograft mouse model were measured using bioluminescence imaging. The blood collected from the eyes of BALB/c nude mice were stored at 4 °C for 24 h and then centrifuged for 15 min under the indicated conditions (4 °C, 3000 rpm). The supernatant was collected and assayed for drug toxicity using kits, including AST, ALT, TG, and γ-GT. […]

[1] = Serum hepatic function index, xenograft nude mice (ELISA); assay type: in vivo, BALB/c nude mice; details: vs control, 25 and 100 mg/kg
Experimental: as §1
Fig. S5: Effects and toxicity of CY12-RP2 in vivo […]
(E) Serum ALT, AST, TG, and γ-GT levels of the orthotopic xenografts model were
measured by ELISA. (F) H&E staining of liver, heart, spleen, lung, and kidney treated

PDPN in A875 cells = assay: Immunofluorescence binding/co-localization with PDPN, A875; assay type: cell-based; details: 5 μM, 10 h, 37 ℃
Experimental: Immunofluorescence analysis was used for antigen localization and quantification. For PDPN immunofluorescence staining, melanoma cells (A375, A875) were seeded in coverslips, cultured for 24 h, and fixed using 4% paraformaldehyde for 15 min at room temperature (RT). The cells were then permeabilized with 0.2% Triton X-100 in PBS for 10 min. Cells were blocked using 1% bovine serum albumin (BSA) in PBS for 30 min at RT, and incubated with the primary antibody overnight at 4 ℃. Afterwards, cells were washed three times with PBS containing 0.01% Triton X-100 for 5 min, and incubated with Alexa Fluor 568–conjugated secondary antibodies at RT for 1 h. Lastly, the nuclei were dyed with 4’,6-diamidino-2-phenylindole (DAPI) for 5 min at RT, and the slides were imaged using a NIKON laser scanning confocal microscope. To further verify the specificity binding ability of CY12-RP2 with PDPN, immunofluorescence was detected for analysis in melanoma cells. Briefly, A375 or A875 cells were incubated with CY12-RP2 at a concentration of 5 μM for 10 h at 37 ℃, and then washed with DMEM to remove the unbound peptide. The anti-PDPN primary antibody was then incubated for 4 h at RT. Further experimental procedures were performed as described above. […]

## CC(C)C[C@H](NC(=O)[C@H](Cc1ccc(O)cc1)NC(=O)[C@@H](N)[C@@H](C)O)C(=O)N[C@@H](CS)C(=O)N[C@H](C(=O)N[C@@H](C)C(=O)N[C@@H](CS)C(=O)N[C@@H](CC(=O)O)C(=O)N[C@@H](Cc1ccc(O)cc1)C(=O)N[C@H](C(=O)N[C@@H](Cc1c[nH]cn1)C(=O)N[C@@H](Cc1c[nH]cn1)C(=O)O)[C@@H](C)O)[C@@H](C)O [CY12-RP2] (H-TYLCTACDYTHH-OH; N-terminus and C-terminus assumed)
A375 melanoma xenograft; 25 mg/kg and 100 mg/kg, especially 100 mg/kg
  tumor growth: significantly inhibited the tumor growth
A375 melanoma xenograft; nude mice, 25 and 100 mg/kg
  mean body weight: no significant change
[1]
  ALT: not significantly changed
  AST: not significantly changed
  TG: increased
  γ-GT: increased
PDPN in A875 cells
  fluorescence and co-localization with PDPN: minimal fluorescence
